From US20240270751A1, “Pyrazolopyridinone Compounds” (BeiGene Ltd., priority 2021, published 2024)

Experiments:
DGKζ = DGKζ (Homo sapiens (Human), UniProt Q13574); test: Biochemical DGK IC50 assay, DGKζ ADP-Glo assay; conditions: 0.5 nM enzyme, 140 μM ATP, 80 μM DAG; read-out: DGKζ ADP-Glo assay IC50
Procedure, shortened: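 ADP formation measured by ADP-Glo luminescence, with test compounds at final 1.55–10000 nM or 23.3–150000 nM. Enzyme: purified full-length human DGKζ from Sf9 insect cells; substrate: DAG/PS micelles in 25 mM HEPES pH 7.0, 0.5 mM EDTA, octyl glucoside.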

DGKα = DGKα (Homo sapiens (Human), UniProt P23743); test: Biochemical DGK IC50 assay, DGKα ADP-Glo assay; conditions: 7.5 nM enzyme, 140 μM ATP, 80 μM DAG
Procedure, shortened: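 Compounds at final 1.55˜10000 nM or 23.3˜150000 nM were tested against full-length DGKα. Substrate was lipid micelles of DAG and PS resuspended in 25 mM HEPES pH 7.0 with 0.5 mM EDTA and 160 mM octyl β-D-glucopyranoside. ADP formed was detected by ADP-Glo.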

DGKα, sequence (P23743 whole entry): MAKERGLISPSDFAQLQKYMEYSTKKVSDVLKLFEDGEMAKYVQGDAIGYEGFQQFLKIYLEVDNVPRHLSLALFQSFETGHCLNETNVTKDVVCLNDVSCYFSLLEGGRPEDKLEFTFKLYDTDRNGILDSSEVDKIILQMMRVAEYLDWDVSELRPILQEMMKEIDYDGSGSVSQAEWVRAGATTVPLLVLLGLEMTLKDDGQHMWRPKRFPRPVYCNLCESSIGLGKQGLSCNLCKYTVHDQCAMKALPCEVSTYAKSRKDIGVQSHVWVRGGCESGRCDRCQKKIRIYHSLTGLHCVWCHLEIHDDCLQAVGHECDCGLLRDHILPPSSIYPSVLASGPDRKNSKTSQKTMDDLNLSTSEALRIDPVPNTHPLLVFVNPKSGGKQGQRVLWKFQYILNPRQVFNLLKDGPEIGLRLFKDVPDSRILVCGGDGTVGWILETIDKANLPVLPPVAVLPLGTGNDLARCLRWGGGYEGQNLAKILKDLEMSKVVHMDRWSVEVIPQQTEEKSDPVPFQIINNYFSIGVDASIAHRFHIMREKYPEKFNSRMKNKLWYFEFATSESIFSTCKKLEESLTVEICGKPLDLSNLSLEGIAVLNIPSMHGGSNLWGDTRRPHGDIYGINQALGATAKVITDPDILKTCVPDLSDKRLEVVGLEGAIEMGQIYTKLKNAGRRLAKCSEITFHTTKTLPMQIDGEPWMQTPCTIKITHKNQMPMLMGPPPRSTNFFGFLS
DGKζ, sequence (Q13574 other isoform, or with tags, fused parts or gaps): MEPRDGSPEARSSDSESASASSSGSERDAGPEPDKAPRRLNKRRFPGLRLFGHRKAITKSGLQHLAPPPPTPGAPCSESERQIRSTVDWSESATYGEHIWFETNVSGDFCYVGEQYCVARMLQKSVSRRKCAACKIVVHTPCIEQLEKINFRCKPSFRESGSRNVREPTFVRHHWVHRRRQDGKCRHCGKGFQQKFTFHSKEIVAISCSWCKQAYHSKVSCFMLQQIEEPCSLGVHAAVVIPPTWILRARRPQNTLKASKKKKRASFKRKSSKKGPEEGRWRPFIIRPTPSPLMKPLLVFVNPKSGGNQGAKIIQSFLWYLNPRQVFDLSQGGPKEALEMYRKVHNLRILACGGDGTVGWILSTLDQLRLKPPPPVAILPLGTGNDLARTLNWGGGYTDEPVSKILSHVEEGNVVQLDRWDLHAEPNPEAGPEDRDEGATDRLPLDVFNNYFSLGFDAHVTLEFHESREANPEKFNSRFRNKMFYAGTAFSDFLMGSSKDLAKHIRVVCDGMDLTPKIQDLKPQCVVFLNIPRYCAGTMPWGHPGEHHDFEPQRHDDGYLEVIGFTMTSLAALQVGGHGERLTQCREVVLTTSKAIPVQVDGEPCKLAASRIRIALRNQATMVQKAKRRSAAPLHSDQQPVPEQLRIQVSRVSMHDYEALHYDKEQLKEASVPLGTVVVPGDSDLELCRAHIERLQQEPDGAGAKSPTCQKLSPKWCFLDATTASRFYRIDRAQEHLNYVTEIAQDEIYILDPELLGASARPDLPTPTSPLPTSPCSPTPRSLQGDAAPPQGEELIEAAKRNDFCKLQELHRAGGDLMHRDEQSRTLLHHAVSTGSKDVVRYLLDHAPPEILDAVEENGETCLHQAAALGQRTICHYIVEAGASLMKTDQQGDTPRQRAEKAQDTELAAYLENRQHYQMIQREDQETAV

Compound | IC50 (DGKζ) [nM] | IC50 (DGKα) [nM]
CC(c1ccc(F)cc1C1(O)COC1)N1C[C@H](C)N(c2cc(=O)n(C)c3cn(CC#N)nc23)C[C@H]1C (stereo partly drawn) [Compound A271, 2-(7-((2S,5R)-4-(1-(4-fluoro-2-(3-hydroxyoxetan-3-yl)phenyl)ethyl)-2,5-dimethylpiperazin-1-yl)-4-methyl-5-oxo-4,5-dihydro-2H-pyrazolo[4,3-b]pyridin-2-yl)acetonitrile] | > 10000 | > 10000
CC[C@H]1CN(C(C)c2ccc(C(=O)N3CCC(F)(F)CC3)cc2)[C@H](CC)CN1c1cc(=O)n(C)c2cn(CC#N)nc12 (some centres unmarked) [Compound A382] | 499 | 79
CC[C@H]1CN(C(C)c2nc3cccc(C(F)(F)F)c3n2CC)[C@H](CC)CN1c1cc(=O)n(C)c2cn(CC#N)nc12 (single isomer, unassigned) [Compound A230a] | 1440 | > 10000
CC[C@H]1CN(C(C)c2ccc(C)cc2C(F)(F)F)[C@H](CC)CN1c1cc(=O)n(C)c2cn(CC#N)nc12 (single isomer, unassigned) [Compound A115a] | > 10000 | > 10000
CC[C@H]1CN(C(C)c2ccc(C(F)F)cn2)[C@H](CC)CN1c1cc(=O)n(C)c2cn(CC#N)nc12 (single isomer, unassigned) [Compound A347a] | 4800 | 173
CCC(c1ccc(C(C)(C)C#N)cc1)N1C[C@H](CC)N(c2cc(=O)n(C)c3cn(CC#N)nc23)C[C@H]1CC (stereo partly drawn) [Compound A339, 2-(4-(1-((2R,5S)-4-(2-(cyanomethyl)-4-methyl-5-oxo-4,5-dihydro-2H-pyrazolo[4,3-b]pyridin-7-yl)-2,5-diethylpiperazin-1-yl)propyl)phenyl)-2-methylpropanenitrile] | 361 | 5360
CC[C@H]1CN(C(C)c2ccc(C)cc2F)[C@H](CC)CN1c1cc(=O)n(C)c2cn(CC#N)nc12 (some centres unmarked) [Compound A340] | 248 | 485
CC[C@H]1CN(C(C)c2nc3cc(C(F)(F)F)ccc3n2CC)[C@H](CC)CN1c1cc(=O)n(C)c2cn(CC#N)nc12 (single isomer, unassigned) [Compound A203a] | 2210 | > 10000
CC[C@H]1CN(C(C)c2ccc(C(C)(C)C#N)cc2)[C@H](CC)CN1c1cc(=O)n(C)c2cn(CC#N)nc12 (some centres unmarked) [Compound A338] | 160 | 527
CC[C@H]1CN(C(C)c2ccc3nccnc3c2)[C@H](CC)CN1c1cc(=O)n(C)c2cn(CC#N)nc12 (single isomer, unassigned) [Compound A28b] | 463 | 983
CC[C@H]1CN([C@@H](C)c2ccc3nccnc3c2)[C@H](CC)CN1c1cc(=O)[nH]c2cn(CC#N)nc12 [Compound A129, 2-(7-((2S,5R)-2,5-diethyl-4-((S)-1-(quinoxalin-6-yl)ethyl)piperazin-1-yl)-5-oxo-4,5-dihydro-2H-pyrazolo[4,3-b]pyridin-2-yl)acetonitrile] | 33 | 2350
CC[C@@H]1CN(c2cc(=O)n(C)c3cn(CC#N)nc23)[C@@H](CC)CN1C(=O)c1ccc(C2CC2)cc1 [Compound A369] | 1090 | 294
Cc1cnc2cc([C@H](C)N3C[C@H](C)N(c4cc(=O)n(C)c5cn(CC#N)nc45)C[C@H]3C)ccc2n1 (single isomer, unassigned) [Compound A269a, 2-(7-((2S,5R)-2,5-dimethyl-4-((S)-1-(2-methylquinoxalin-6-yl)ethyl)piperazin-1-yl)-4-methyl-5-oxo-4,5-dihydro-2H-pyrazolo[4,3-b]pyridin-2-yl)acetonitrile, or 2-(7-((2S,5R)-2,5-dimethyl-4-((R)-1-(2-methylquinoxalin-6-yl)ethyl)piperazin-1-yl)-4-methyl-5-oxo-4,5-dihydro-2H-pyrazolo[4,3-b]pyridin-2-yl)acetonitrile] | 365 | > 10000
CC[C@H]1CN(C(C)c2ccc(F)cc2C(C)O)[C@H](CC)CN1c1cc(=O)n(C)c2cn(CC#N)nc12 (some centres unmarked) [Compound A188] | 786 | > 10000
CC(c1ccc2c(c1)OCCO2)N1C[C@H](C)N(c2cc(=O)n(C)c3cn(CC#N)nc23)C[C@H]1C (some centres unmarked) [Compound A43] | 65 | 2900
COC(=O)C1CN(c2cc(=O)n(C)c3cn(CC#N)nc23)CCN1[C@@H](C)c1ccc2nccnc2c1 (single isomer, unassigned) [Compound A173a] | 502 | > 10000
CC[C@H]1CN(C(C)c2ccccc2NC(C)=O)[C@H](CC)CN1c1cc(=O)n(C)c2cn(CC#N)nc12 (some centres unmarked) [Compound A165] | 2840 | > 10000
CC[C@H]1CN(C(C)c2ccc(F)cc2C(F)(F)F)[C@H](CC)CN1c1cc(=O)n(C)c2cn(CC#N)nc12 (single isomer, unassigned) [Compound A196a] | 1350 | > 10000
CC(c1ccc(F)cc1OC(F)F)N1C[C@H](C)N(c2cc(=O)n(C)c3cn(CC#N)nc23)C[C@H]1C (stereo partly drawn) [Compound A247, 2-(7-((2S,5R)-4-(1-(2-(difluoromethoxy)-4-fluorophenyl)ethyl)-2,5-dimethylpiperazin-1-yl)-4-methyl-5-oxo-4,5-dihydro-2H-pyrazolo[4,3-b]pyridin-2-yl)acetonitrile] | 283 | > 10000
CCc1c(C(C)N2C[C@H](CC)N(c3cc(=O)n(C)c4cn(CC#N)nc34)C[C@H]2CC)cnn1C (single isomer, unassigned) [Compound A213a] | 1360 | > 10000
CC[C@H]1CN(C(C)c2ccc3nccnc3c2)[C@H](C)CN1c1cc(=O)n(C)c2cn(CC#N)nc12 (single isomer, unassigned) [Compound A98a] | 15 | 1060
CC[C@H]1CN(C(C)c2ccc3nccnc3c2)[C@H](C)CN1c1cc(=O)n(C)c2cn(CC#N)nc12 (single isomer, unassigned) [Compound A98b] | 1760 | > 10000
CC[C@H]1CN(C(C)c2ccc(C(N)=O)cc2)[C@H](CC)CN1c1cc(=O)n(C)c2cn(CC#N)nc12 (single isomer, unassigned) [Compound A120a] | 2930 | 176
CC[C@H]1CN(C(C)c2cnc3c(n2)CCCC3)[C@H](CC)CN1c1cc(=O)n(C)c2cn(CC#N)nc12 (single isomer, unassigned) [Compound A357a] | 2540 | 2450
CC[C@@H]1CN(c2cc(=O)[nH]c3cn(CC#N)nc23)[C@@H](C)CN1C(C)c1ccc2nccnc2c1 (single isomer, unassigned) [Compound A177a] | 70 | 8210
CC[C@H]1CN(C(C)c2ccccc2C(F)(F)F)[C@H](CC)CN1c1cc(=O)n(C)c2cn(CC#N)nc12 (single isomer, unassigned) [Compound A197b] | 169 | > 10000
CC[C@H]1CN(C(C)c2ccc(C(F)(F)F)cc2F)[C@H](CC)CN1c1cc(=O)n(C)c2c[nH]nc12 (single isomer, unassigned) [Compound A231a] | > 10000 | 1120
CC[C@H]1CN(C(C)c2ccc(F)cc2OC(F)F)[C@H](CC)CN1c1cc(=O)n(C)c2cn(CC#N)nc12 (single isomer, unassigned) [Compound A171b] | 1360 | > 10000
